{"source": "paper PMC10451632", "about": "“Site Mutation Improves the Expression and Antimicrobial Properties of Fungal Defense” (Antibiotics, 2023)", "key": {"mouse erythrocytes": {"system": "mouse erythrocytes", "experiment": "Hemolytic activity", "format": "cell-based", "settings": "128 μg/mL; fresh mouse red blood cells; 0.1% Triton X-100 = 100% hemolysis; mean of three biological replicates", "method": "The hemolytic activity of PN7 was evaluated based on the amount of the released hemoglobin from erythrocyte suspensions of healthy mouse blood. Erythrocyte suspensions treated with 0.1% Triton X-100 and saline were used as 100% hemolysis and negative control, respectively."}, "S. aureus ATCC 43300 [1]": {"system": "S. aureus ATCC 43300", "experiment": "Time-killing curves", "format": "cell-based, Staphylococcus aureus", "settings": "for reduction of bacterial counts during the first two hours: initial inoculum 5.15 Log10 CFU/mL, MHB, 37 °C, 250 rpm, triplicate", "method": "S. aureus ATCC 43300 was cultured to the logarithmic stage, MHB medium was used for adjusting the concentration of bacterial suspension, and PN7 (1×, 2× and 4× MIC), Plectasin (1×, 2× and 4× MIC) and 2× MIC vancomycin (the MIC was 1 μg/mL) were added into the suspensions containing 10^5 CFU/mL bacteria (after the count of viable bacteria detection, the initial inoculation amount was 5.15 Log10 CFU/mL), cultured at 37 °C and 250 rpm. A 100 CFU/mL is considered the detection limit. […] In contrast, the count was reduced by 1.6 Log10 CFU/mL after treatment with 2× MIC vancomycin, an approximately 66% population decrease of target pathogens compared with the PN7 treatment group at the same time point of the second hour. After 4 h, the colony number of the peptide treatment group was almost 0, while that of the vancomycin treatment group was 0 after 8 h, at 4 h later than the PN7 treatment. At 24 h, the number of colonies of only 1× MIC Plectasin treatment group rebounded, while no such phenomenon occurred in the other treatment groups.\nS. aureus ATCC 43300 was cultured to the logarithmic stage. MHB medium adjusted the concentration of bacterial suspension, and PN7 (1×, 2× and 4× MIC) was added into the suspensions containing 10^5 CFU/mL bacteria, cultured at 37 °C and 250 rpm. 1×, 2×, 4× MIC Plectasin and 2× MIC vancomycin were used as positive controls, and the group treated without antibiotics was used as the blank controls. Then, 100 μL samples were taken at different time points and were continuously diluted and coated on MHA medium for colony counting. A 100 CFU/mL is considered the detection limit."}, "S. aureus ATCC 43300 [2]": {"system": "S. aureus ATCC 43300", "experiment": "Post antibiotic effect (PAE)", "format": "cell-based, Staphylococcus aureus", "source_text": "The post-antibiotic effect reflects the inhibitory effect on the growth of pathogenic bacteria after short contact with drugs, which is related to the strength of the bactericidal activity of drugs. The test method of the PAE of PN7 against S. aureus ATCC 43300 refers to the descriptions in previous studies."}, "S. aureus ATCC 43300 [3]": {"system": "S. aureus ATCC 43300", "experiment": "SEM morphological observation", "format": "cell-based, Staphylococcus aureus", "settings": "2× MIC, 30 min", "method": "To further characterize the bactericidal effects of peptide, SEM was used to visualize the morphological changes. S. aureus ATCC 43300 cells were treated with PN7. Cells for SEM were processed as described previously."}}, "note": "Bridge positions count the residues as written; N and C are the ends. Peptide text beside a SMILES is read from it.", "data": [{"smiles": "CC[C@H](C)[C@@H]1NC(=O)[C@H](CO)NC(=O)[C@H](CCCCN)NC(=O)[C@@H]2CSSC[C@@H](C(=O)N[C@@H](Cc3ccc(O)cc3)C(=O)O)NC(=O)[C@H](CCCCN)NC(=O)[C@@H]3CSSC[C@H](NC(=O)[C@H](CCCNC(=N)N)NC(=O)CNC(=O)[C@H](CC(=O)O)NC(=O)[C@H](CC(=O)O)NC(=O)[C@H](CCC(=O)O)NC(=O)[C@H](Cc4ccc(O)cc4)NC(=O)[C@H](Cc4c[nH]c5ccccc45)NC(=O)[C@@H]4CCCN4C(=O)CNC(=O)[C@H](CC(N)=O)NC(=O)[C@@H](NC(=O)CNC(=O)[C@H](Cc4ccccc4)NC(=O)CN)CSSC[C@H](NC(=O)[C@H](Cc4ccc(O)cc4)NC(=O)CNC(=O)CNC(=O)[C@H](CCCCN)NC(=O)[C@H](Cc4ccc(O)cc4)NC(=O)CNC(=O)[C@H](CCCCN)NC1=O)C(=O)N[C@@H](C)C(=O)N[C@@H](CCCCN)C(=O)NCC(=O)NCC(=O)N[C@@H](Cc1ccccc1)C(=O)N[C@@H](C(C)C)C(=O)N3)C(=O)N[C@@H](Cc1c[nH]cn1)C(=O)N[C@@H](CC(N)=O)C(=O)N[C@@H](Cc1c[nH]cn1)C(=O)N2", "note": "[PN7] (H-GFGCNGPWYEDDGRCHNHCKSIKGYKGGYCAKGGFVCKCY-OH; disulfide 4-30, 15-37, 19-39 (inferred); N-terminus and C-terminus assumed)", "values": [{"measurement": "hemolysis", "setting": "mouse erythrocytes", "value": 0.19, "unit": "%"}, {"measurement": "reduction of bacterial counts during the first two hours", "setting": "S. aureus ATCC 43300 [1]; 1× MIC", "value": 2.25, "unit": "Log10 CFU/mL"}, {"measurement": "reduction of bacterial counts during the first two hours", "setting": "S. aureus ATCC 43300 [1]; 2× MIC", "value": 2.42, "unit": "Log10 CFU/mL"}, {"measurement": "reduction of bacterial counts during the first two hours", "setting": "S. aureus ATCC 43300 [1]; 4× MIC", "value": 2.72, "unit": "Log10 CFU/mL"}, {"measurement": "time to kill 99% of S. aureus ATCC 43300", "setting": "S. aureus ATCC 43300 [1]; time-kill, 2× MIC", "value": "≤ 2", "unit": "h"}, {"measurement": "gap of PAE, PN7 versus vancomycin", "setting": "S. aureus ATCC 43300 [2]; 1× MIC", "value": 12, "unit": "times"}, {"measurement": "gap of PAE, PN7 versus vancomycin", "setting": "S. aureus ATCC 43300 [2]; 2× MIC", "value": 3.648, "unit": "times"}, {"measurement": "gap of PAE, PN7 versus vancomycin", "setting": "S. aureus ATCC 43300 [2]; 4× MIC", "value": 3.513, "unit": "times"}, {"measurement": "cell morphology by SEM", "setting": "S. aureus ATCC 43300 [3]", "value": "shrinkage only appears in the cell surface"}]}]}
